Assay results taken from patent US7223781B2 (Beiersdorf AG, priority 2001, dated 2007).
Where two headings read alike, the source gives them in different places. Values belong to the molecule of their own block, whether it stands above or below them.

Assays:
[1] = target: T1, COX-1 (Sus scrofa, UniProt A0A287ANF9); experiment: In-vitro test for COX-1 inhibition: fluorimetric quantification of malonaldehyde (MDA) in A23187-activated pig platelet suspension; format: cell-based; settings: for inhibition of COX-1 (in words): comparison of both isoenzymes
T1 construct: A platelet suspension obtained from pig's blood is preincubated with the test substance; endogenous in cells; host or cells: platelets from pig's blood
Experimental: In-vitro Test Procedure for the Determination of COX-1 Inhibition
The inhibition of the cyclooxygenase pathway is carried out by fluorimetric quantification of malonaldehyde (MA). This condenses in the acidic medium with twice the molar amount of thiobarbituric acid to give a red pigment dye, which has a fluorescence at λExcitation: 533 nm, λEmission: 550 nm.
A platelet suspension obtained from pig's blood is preincubated with the test substance for 10 min at 37° C. The concentration of the suspension should be 8×10^8 cells/ml. The arachidonic acid cascade is then activated by addition of the antibiotic calcium ionophore A23187 ([…]). After a further 10 min at 37° C., the reaction is stopped using a trichloroacetic acid solution. The samples are centrifuged and the supernatant is incubated with thiobarbituric acid for 30 min at 70° C. After cooling (30 min at room temperature), the samples are measured fluorimetrically at 533/550 nm and the IC50 values of the test compounds are determined therefrom by means of a calibration curve.

[2] = target: T2, COX-2 (Homo sapiens, UniProt P35354); experiment: In-vitro test for COX-2 inhibition: PGE2 ELISA in LPS-stimulated human monocytes; format: cell-based; settings: for IC50: Table 18, LPS-stimulated human monocytes, PGE2; for inhibition of COX-2 (in words): comparison of both isoenzymes
T2 construct: endogenous in cells; host or cells: LPS-stimulated human monocytes (Ficoll extraction)
T2 sequence (P35354 18-604): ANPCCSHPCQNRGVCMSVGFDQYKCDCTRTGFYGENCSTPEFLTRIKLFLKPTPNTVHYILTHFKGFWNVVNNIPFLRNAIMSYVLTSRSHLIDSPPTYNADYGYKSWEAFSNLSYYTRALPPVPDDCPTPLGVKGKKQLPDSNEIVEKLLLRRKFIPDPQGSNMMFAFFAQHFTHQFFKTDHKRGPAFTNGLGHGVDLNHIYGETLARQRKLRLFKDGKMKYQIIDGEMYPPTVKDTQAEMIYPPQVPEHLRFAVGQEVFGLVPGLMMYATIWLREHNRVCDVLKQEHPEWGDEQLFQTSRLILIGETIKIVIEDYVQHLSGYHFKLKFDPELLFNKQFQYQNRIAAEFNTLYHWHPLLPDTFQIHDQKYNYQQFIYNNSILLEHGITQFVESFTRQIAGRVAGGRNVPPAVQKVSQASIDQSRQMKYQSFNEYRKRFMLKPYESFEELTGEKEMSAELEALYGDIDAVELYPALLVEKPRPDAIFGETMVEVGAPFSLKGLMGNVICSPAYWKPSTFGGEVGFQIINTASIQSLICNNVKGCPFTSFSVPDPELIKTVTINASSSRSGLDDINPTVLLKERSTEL
Experimental: In-vitro Test Procedure for the Determination of COX-2 Inhibition
The procedure is carried out on LPS-stimulated human monocytes which have been obtained by Ficoll extraction. The measurement variable used is the PGE2 formed, which is determined by means of ELISA.

[3] = Table 1, carbamic acid thioesters, pig platelets, read-out: MDA IC50
[4] = tables 1 to 17, read-out: IC50 values (inhibition of cyclooxygenase-1)
[5] = read-out: COX-2 inhibition pIC50 (converted)
[6] = Table 2, sulfanylacetamides, pig platelets, read-out: MDA pIC50 (converted)
[7] = read-out: COX-2 inhibition IC50
[8] = Table 8, arylsulfonamides, pig platelets, read-out: MDA pIC50 (converted)
[9] = Table 9, alkylamides, pig platelets, read-out: MDA pIC50 (converted)
[10] = Table 7, arylamides, pig platelets, read-out: MDA pIC50 (converted)
[11] = Table 1, carbamic acid thioesters, pig platelets, read-out: MDA pIC50 (converted)

T1 sequence (A0A287ANF9 25-600): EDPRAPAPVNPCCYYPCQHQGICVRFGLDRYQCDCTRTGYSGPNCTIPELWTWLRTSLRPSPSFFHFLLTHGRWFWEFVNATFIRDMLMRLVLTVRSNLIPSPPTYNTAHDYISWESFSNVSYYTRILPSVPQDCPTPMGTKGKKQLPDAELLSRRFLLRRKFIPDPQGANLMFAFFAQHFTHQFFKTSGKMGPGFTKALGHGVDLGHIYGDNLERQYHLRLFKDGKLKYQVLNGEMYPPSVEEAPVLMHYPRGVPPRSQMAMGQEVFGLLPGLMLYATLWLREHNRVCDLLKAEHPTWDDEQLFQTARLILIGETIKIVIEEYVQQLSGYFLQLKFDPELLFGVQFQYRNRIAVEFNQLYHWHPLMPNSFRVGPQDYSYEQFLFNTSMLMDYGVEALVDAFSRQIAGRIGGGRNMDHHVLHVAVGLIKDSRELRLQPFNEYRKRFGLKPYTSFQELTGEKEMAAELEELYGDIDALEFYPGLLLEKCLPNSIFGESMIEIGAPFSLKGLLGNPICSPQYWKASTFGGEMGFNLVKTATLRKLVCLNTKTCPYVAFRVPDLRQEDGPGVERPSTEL

- IC50 [1, 3]: 4.8 nM
- IC50 [1, 4]: ~1 nM
- IC50 [2, 5]: 2400 nM
Compound: CCN(CC)C(=O)Sc1nc(-c2ccc(OC)cc2)c(-c2ccc(OC)cc2)[nH]1 [Compound T2, [4,5-Bis(4-methoxyphenyl)-1H-imidazol-2-yl]-N,N-diethylcarbamic acid thioester]

- IC50 [1, 6]: 10 nM
- IC50 ([1]; Table 15, N,N-acetamides, pig platelets, read-out: MDA pIC50 (converted)): 10 nM
- IC50 [2, 5]: 2290 nM
Compound: COc1ccc(-c2nc(SCC(=O)N(C)C)[nH]c2-c2ccc(OC)cc2)cc1 [Compound T6, N^1N^1-Dimethyl-2-[4,5-bis(4-methoxyphenyl)-1H-imidazol-2-ylsulfanyl]-acetamide]

- IC50 [1, 6]: 33.1 nM
- IC50 [2, 7]: 500 nM
Compound: COc1ccc(-c2nc(SC(C(C)=O)C(=O)N(C)C)[nH]c2-c2ccc(OC)cc2)cc1 (stereo not shown) [Compound T7, N^1,N^1-Dimethyl-2-[4,5-bis(4-methoxyphenyl)-1H-imidazol-2-ylsufanyl]-3-oxobutanamide]

- IC50 ([1]; Table 4, aryl ketones, pig platelets, read-out: MDA IC50): 9.5 nM
- IC50 [1, 4]: ~1 nM
- IC50 [2, 5]: 257 nM
Compound: COc1ccc(-c2nc(SCC(=O)c3ccccc3)[nH]c2-c2ccc(OC)cc2)cc1 [Compound T11, 2-[4,5-Bis(4-methoxyphenyl)-1H-imidazol-2-ylsulfanyl]-1-phenylethan-1-one]

- IC50 [1, 8]: 282 nM
- IC50 [2, 5]: 3020 nM
Compound: COc1ccc(-c2nc(SCCNS(=O)(=O)c3ccc(Cl)cc3)[nH]c2-c2ccc(OC)cc2)cc1 [Compound T18, N-hu 1-{2-[4,5-Bis(4-methoxyphenyl)-1H-imidazol-2-ylsufanyl]ethyl}-4-chlorobenzenesulfonamide]

- IC50 [1, 8]: 407 nM
- IC50 [2, 5]: 1510 nM
Compound: COc1ccc(-c2nc(SCCNS(=O)(=O)c3cc(C(F)(F)F)cc(C(F)(F)F)c3)[nH]c2-c2ccc(OC)cc2)cc1 [Compound T22, N^1-{2-[4,5-Bis(4-methoxyphenyl)-1H-imidazol-2-ylsufanyl]ethyl}-3,5-bis-(trifluoromethyl)benzenesulfonamide]

- IC50 [1, 8]: 18.2 nM
- IC50 [2, 5]: 1200 nM
Compound: COc1ccc(-c2nc(SCCNS(=O)(=O)c3ccc(NC(C)=O)cc3)[nH]c2-c2ccc(OC)cc2)cc1 [Compound T27, N^1-(4-{2-[4,5-Bis(4-methoxyphenyl)-1H-imidazol-2-ylsufanyl]ethyl-sulfamoyl}phenyl)acetamide]

- IC50 ([1]; Table 17, methyl derivatives, pig platelets, read-out: MDA pIC50 (converted)): 20.9 nM
- inhibition of COX-1 (in words) [1]: approximately equally high potency
- IC50 [2, 5]: 10 nM
- inhibition of COX-2 (in words) [2]: approximately equally high potency
Compound: COc1ccc(-c2nc(SCCN(C)C(=O)c3ccccc3)[nH]c2-c2ccc(OC)cc2)cc1 [Compound T29, N^1-{2-[4,5-Bis(4-methoxyphenyl)-1H-imidazol-2ylsulfanyl]ethyl}-N^1-1-methylbenzamide]

- IC50 ([1]; Table 16, dimethyl compounds, pig platelets, read-out: MDA pIC50 (converted)): 83.2 nM
- IC50 [2, 7]: 910 nM
Compound: COc1ccc(-c2nc(SCCN(C)C(=O)c3ccccc3)n(C)c2-c2ccc(OC)cc2)cc1 [Compound T31]

- IC50 [1, 9]: 10 nM
- IC50 [2, 5]: 2690 nM
Compound: COc1ccc(-c2nc(SCCNC(C)=O)[nH]c2-c2ccc(OC)cc2)cc1 [Compound T49, N^1-{2-[4,5-Bis(4-methoxyphenyl)-1H-imidazol-2-ylsulfanyl]ethyl}acetamide]

- IC50 ([1]; Table 13, urea derivatives, pig platelets, read-out: MDA IC50): 78 nM
- IC50 [2, 5]: 209 nM
Compound: COc1ccc(-c2nc(SCCNC(=O)N(C)C)[nH]c2-c2ccc(OC)cc2)cc1 [Compound T57, N^1-{2-[4,5-Bis(4-methoxyphenyl)-1H-imidazol-2-ylsulfanyl]ethyl}-N′,N′-dimethylurea]

- IC50 ([1]; Table 5, heteroarylmethyl sulfides, pig platelets, read-out: MDA pIC50 (converted)): 100 nM
- IC50 ([1]; Table 14, sulfones and their sulfide analogs, pig platelets, read-out: MDA pIC50 (converted)): 100 nM
- IC50 [2, 5]: 240 nM
Compound: COc1ccc(-c2nc(SCc3ccccn3)[nH]c2-c2ccc(OC)cc2)cc1 [Compound T69, 2-[4,5-Bis(4-methoxyphenyl)-1H-imidazol-2-ylsulfanylmethyl]pyridine]

- IC50 [1, 9]: 1100 nM
- IC50 [2, 5]: 2690 nM
Compound: CC(=O)NCCSc1nc(-c2ccc(Cl)cc2)c(-c2ccc(Cl)cc2)[nH]1 [Compound T84, N^1-{2-[4,5-Bis(4-chlorophenyl)-1H-imidazol-2-ylsufanyl]ethyl}acetamide]

- IC50 [1, 10]: 2090 nM
Compound: O=C(NCCSc1nc(-c2ccccc2)c(-c2ccccc2)[nH]1)c1ccccc1 [Compound T94]

- IC50 [1, 10]: 1000 nM
Compound: O=C(NCCSc1nc(-c2ccc(F)cc2)c(-c2ccc(F)cc2)[nH]1)c1ccccc1 [Compound T98, N^1-{2-[4,5-Bis(4-fluorophenyl)-1H-imidazol-2-ylsufanyl]ethyl}benzamide]

- IC50 [1, 3]: 7300 nM
Compound: CN(C)C(=O)Sc1nc(-c2ccc(Cl)cc2)c(-c2ccccc2)[nH]1 [Compound T103, [4-(4-Chlorophenyl)-5-phenyl-1H-imidazol-2-yl]-N,N-dimethylcarbamic acid thioester]

- IC50 [1, 11]: 4170 nM
Compound: CCN(CC)C(=O)Sc1nc(-c2ccc(Cl)cc2)c(-c2ccccc2)[nH]1 [Compound T104, [4-(4-Chlorophenyl)-5-phenyl-1H-imidazol-2-yl]-N,N-diethylcarbamic acid thioester]

- IC50 ([1]; Table 7, arylamides, pig platelets, read-out: MDA IC50): 900 nM
Compound: O=C(NCCSc1nc(-c2ccc(Cl)cc2)c(-c2ccccc2)[nH]1)c1ccccc1 [Compound T106, N^1-{2-[4-(4-Chlorophenyl)-5-phenyl-1H-imidazol-2-ylsufanyl]ethyl}benzamide]

- IC50 [1, 11]: 158 nM
- IC50 [2, 5]: 1000 nM
Compound: CCN(CC)C(=O)Sc1nc(-c2ccc(Cl)cc2)c(-c2ccc(OC)cc2)[nH]1 [Compound T108, [4-(4-Chlorophenyl)-5-(4-methoxyphenyl)-1H-imidazol-2-yl]-N N-diethyl-carbamic acid thioester]

- IC50 ([1]; Table 6, N1-acetic acid derivatives, pig platelets, read-out: MDA IC50): 490 nM
- inhibition of COX-1 (in words) [1]: medium-strong inhibition
- IC50 [2, 5]: 1000 nM
- inhibition of COX-2 (in words) [2]: medium-strong inhibition
Compound: COc1ccc(-c2c(-c3ccc(Cl)cc3)nc(SCc3ccccn3)n2CC(=O)O)cc1 [Compound T109, 2-[4-(4-Chlorophenyl)-5-(4-methoxyphenyl)-2-(2-pyridylmethylsulfanyl) -1H-imidazol-1-yl]acetic acid]

- IC50 [1, 10]: 3310 nM
Compound: COc1ccc(-c2[nH]c(SCCNC(=O)c3ccccc3)nc2-c2ccc(Cl)cc2)cc1 [Compound T110, N^1-{2-[4-(4-Chlorophenyl)-5-(4-methoxyphenv)-1H-imidazol-2-yl-sufanyl]ethyl}benzamide]

- IC50 [1, 8]: 129 nM
- IC50 [2, 7]: 800 nM
Compound: COc1ccc(-c2[nH]c(SCCNS(=O)(=O)c3ccc(Cl)cc3)nc2-c2ccc(Cl)cc2)cc1 [Compound T111, N^1-{2-[4-(4-Chlorophenyl)-5-(4-methoxyphenv)-1H-imidazol-2-yl-sufanyl]ethyl}-4-chlorobenzenesulfonamide]
